Experimental data from paper PMC7603158, “Attenuation of Spatial Memory in 5xFAD Mice by Halting Cholinesterases, Oxidative Stress and Neuroinflammation Using a Cyclopentanone Derivative” (Pharmaceuticals, 2020).

Target: Acetylcholinesterase (AChE) (Electrophorus electricus, UniProt O42275)
Experiment: Ellman colorimetric enzyme inhibition assay (commercial enzyme)
Format: biochemical

Chain of Acetylcholinesterase (AChE) (O42275 24-633): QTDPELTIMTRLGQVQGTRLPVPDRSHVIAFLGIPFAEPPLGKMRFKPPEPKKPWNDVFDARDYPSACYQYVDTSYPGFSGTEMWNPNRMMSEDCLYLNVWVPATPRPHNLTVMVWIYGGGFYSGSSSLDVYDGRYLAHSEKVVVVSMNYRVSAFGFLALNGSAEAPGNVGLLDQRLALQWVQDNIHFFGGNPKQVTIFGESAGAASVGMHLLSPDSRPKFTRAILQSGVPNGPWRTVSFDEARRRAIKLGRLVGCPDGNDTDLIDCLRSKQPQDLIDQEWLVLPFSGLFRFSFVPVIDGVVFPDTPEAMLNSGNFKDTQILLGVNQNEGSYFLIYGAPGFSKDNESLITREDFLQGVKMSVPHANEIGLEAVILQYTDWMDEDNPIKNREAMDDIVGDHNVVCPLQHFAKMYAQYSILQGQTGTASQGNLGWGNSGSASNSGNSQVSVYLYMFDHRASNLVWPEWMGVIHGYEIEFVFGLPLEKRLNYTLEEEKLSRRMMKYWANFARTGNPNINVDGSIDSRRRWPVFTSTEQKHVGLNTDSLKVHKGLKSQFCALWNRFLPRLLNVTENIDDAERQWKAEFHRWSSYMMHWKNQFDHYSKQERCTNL

SMILES: O=C1CCCC1C(O)c1cccc([N+](=O)[O-])c1 (stereo not shown) [3NCP, 2-(hydroxy-(3-nitrophenyl)methyl)cyclopentanone]
- IC50: 68.7 µM
